Measurements published in PMC7466261, “In Silico and In Vitro Analysis of Multifunctionality of Animal Food-Derived Peptides” (Foods, 2020).
Where two headings read alike, the source gives them in different places. Where a SMILES comes first, the peptide text is derived from it. Where no end group is shown, it is not given here.

Key:
[1] = molecular target: T1, angiotensin-converting enzyme (ACE) (Oryctolagus cuniculus, UniProt P12822); test: ACE-inhibitory activity, fluorescence assay with Abz-Gly-Phe(NO2)-Pro; type: biochemical
T1 sequence (P12822 34-1310): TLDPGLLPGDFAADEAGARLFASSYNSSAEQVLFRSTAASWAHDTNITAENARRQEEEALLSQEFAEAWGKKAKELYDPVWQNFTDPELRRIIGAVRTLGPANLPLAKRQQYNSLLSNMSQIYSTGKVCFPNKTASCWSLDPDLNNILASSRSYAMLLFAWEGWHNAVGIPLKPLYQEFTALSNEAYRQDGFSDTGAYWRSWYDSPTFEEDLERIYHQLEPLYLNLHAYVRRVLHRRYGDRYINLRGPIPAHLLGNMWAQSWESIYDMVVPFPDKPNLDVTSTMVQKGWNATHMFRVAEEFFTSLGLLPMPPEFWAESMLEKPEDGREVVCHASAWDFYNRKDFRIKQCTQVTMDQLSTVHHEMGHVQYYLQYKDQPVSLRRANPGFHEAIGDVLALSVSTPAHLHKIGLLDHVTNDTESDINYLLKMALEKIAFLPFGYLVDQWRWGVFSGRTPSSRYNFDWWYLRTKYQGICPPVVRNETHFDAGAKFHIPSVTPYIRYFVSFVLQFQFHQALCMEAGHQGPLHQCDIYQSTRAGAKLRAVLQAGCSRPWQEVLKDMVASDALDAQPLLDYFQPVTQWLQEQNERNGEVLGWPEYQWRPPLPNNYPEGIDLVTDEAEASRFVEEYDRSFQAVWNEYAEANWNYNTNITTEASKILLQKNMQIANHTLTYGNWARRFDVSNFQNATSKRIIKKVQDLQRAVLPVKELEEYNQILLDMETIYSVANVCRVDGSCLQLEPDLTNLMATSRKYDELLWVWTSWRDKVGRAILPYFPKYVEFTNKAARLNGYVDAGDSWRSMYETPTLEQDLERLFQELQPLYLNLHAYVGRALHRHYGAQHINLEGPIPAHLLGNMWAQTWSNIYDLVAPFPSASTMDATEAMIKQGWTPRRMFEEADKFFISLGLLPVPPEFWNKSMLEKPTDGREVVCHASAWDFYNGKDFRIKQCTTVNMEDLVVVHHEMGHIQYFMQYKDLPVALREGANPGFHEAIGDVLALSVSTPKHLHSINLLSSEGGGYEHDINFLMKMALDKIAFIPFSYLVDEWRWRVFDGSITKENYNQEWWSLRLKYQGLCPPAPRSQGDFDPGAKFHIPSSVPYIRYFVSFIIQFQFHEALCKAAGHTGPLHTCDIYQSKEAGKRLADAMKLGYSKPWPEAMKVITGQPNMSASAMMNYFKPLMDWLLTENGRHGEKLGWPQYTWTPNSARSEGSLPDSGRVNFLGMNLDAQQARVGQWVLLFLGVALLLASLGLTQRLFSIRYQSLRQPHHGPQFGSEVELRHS
Description: ACE (1 U/mL) was diluted (0.04 U/mL) in 150 mM Tris buffer containing 0.1 μM ZnCl2 (pH 8.3). Forty microliters of sample (or MilliQ water for blank and control) were added to a black multi-well plate (Porvair, Leatherhead, UK). Then, 40 μL of ACE were added, and the reaction started after the addition of 160 μL of the substrate. The plate was incubated at 37 °C for 30 min, and the fluorescence was measured in a FLUOstar OPTIMA plate reader (BMG Labtechnologies GmbH, Offenburg, Germany) with 320 nm excitation and 420 nm emission filters.

[2] = tested on: Caco-2 cells; test: Cell viability (MTT), direct effects, Caco-2; type: cell-based, human; details: Caco-2, 1–100 µM, 24 h
Description: (§1) Cell viability was determined using the MTT assay. […] Samples were analyzed in triplicate.

[3] = tested on: RAW264.7 cells; test: Cell viability (MTT), direct effects, RAW264.7; type: cell-based, mouse; details: RAW264.7, 1–100 µM, 24 h
Description: as §1

[4] = tested on: macrophages RAW264.7; details: RAW264.7 stimulated with 0.25 mM t-BOOH, pre-treated with 25 µM; stimulated cells alone 70.97%
Description: The human colorectal adenocarcinoma Caco-2 and the mouse macrophage RAW 264.7 cell lines were obtained from the American Type Culture Collection (ATCC, Rockville, MD, USA). Caco-2 and RAW264.7 cells were grown in High-Glucose DMEM supplemented with 10% (v:v) FBS, 1% (v:v) penicillin/streptomycin/amphotericin B, and 1% (v:v) non-essential amino acids solution. Cells were maintained in plastic 75-cm^2 culture flasks at 37 °C in a humidified incubator containing 5% CO2 and 95% air.
Cells were incubated for 24 h with various concentrations of selected synthetic peptides. To evaluate both the direct and protective effects against oxidative stress, the incubation period was followed by 1.5 h-treatment with culture medium or tert-butyl hydroperoxide (t-BOOH, 1 mM for Caco-2 cells and 0.25 mM for RAW264.7 cells), respectively, and different biomarkers were evaluated.
Cell viability was determined using the MTT assay. Caco-2 and RAW264.7 cells were seeded onto 96-well plates (Corning Costar Corp., Corning, NY, USA) at a density of 1.0 × 10^4 cells/cm^2 and incubated for 9 days and 24 h, respectively. […] The supernatant was aspirated, the formazan crystals were solubilized in DMSO:ethanol (1:1, v:v), and the absorbance was measured at 570 nm in a FLUOstar OPTIMA plate reader (BMG Labtech). Results were expressed as percentage of the control, considered as 100%. Samples were analyzed in triplicate.

[5] = Oxygen radical absorbance capacity (ORAC)-FL assay; details: mean ± SD
Description: An oxygen radical absorbance capacity (ORAC)-FL assay was used based on the protocol previously optimized. The reaction was performed at 37 °C in 75 mM phosphate buffer (pH 7.4). The final assay mixture volume was 200 µL, containing 70 nM FL, 12 mM AAPH, and antioxidant [(Trolox, 1–8 µM) or sample (at different concentrations)]. Fluorescence was measured during 137 min in a FLUOstar OPTIMA plate reader (BMG Labtech) with 485 nm excitation and 520 nm emission filters. The equipment was controlled by the FLUOstar Control ver. 1.32 R2 software for fluorescence measurement. Samples were analyzed in triplicate. The final ORAC-FL value was expressed as μmol Trolox equivalents (TE) per μmol peptide.

[6] = ABTS assay (TEAC); details: mean ± SD
Description: Antioxidant activity was measured using a previously optimized method with some modifications. A mixture of 7 mM ABTS stock solution and 2.45 mM potassium persulfate was kept in the dark at room temperature for 12-16 h to form the ABTS radical cation (ABTS^•+). The ABTS^•+ solution was diluted in 5 mM of phosphate buffer solution (PBS) (pH 7.4) to an absorbance of 0.70 ± 0.02 at 734 nm at 30 °C. Two mL of diluted ABTS^•+ solution were mixed with 20 μL of sample or Trolox (0–0.015 μmol), and the absorbance was recorded at 734 nm after 10 min incubation at 30 °C. The Trolox equivalent antioxidant capacity (TEAC) value was expressed as μmol TE per μmol peptide. Each sample was analyzed in triplicate.

[7] = set-up: method as in doi:10.1007/s13594-015-0226-5; details: MBPDB; cited from earlier work
[8] = set-up: method as in PMID 10908049; details: BIOPEP-UWM; cited from earlier work
[9] = molecular target: T1, angiotensin-converting enzyme (ACE); details: BIOPEP-UWM; read-out: ACE inhibitory IC50; cited from earlier work
[10] = molecular target: opioid, (3H)-naloxone binding; details: database value; read-out: Opioid agonist IC50, inhibition of (3H)-naloxone binding; cited from earlier work
[11] = tested on: mucin secretion; details: MBPDB; cited from earlier work
[12] = tested on: murine splenocytes; set-up: method as in doi:10.1016/j.idairyj.2010.02.013; details: MBPDB; cited from earlier work
[13] = molecular target: dipeptidyl peptidase IV (DPP-IV); details: MBPDB; read-out: Antidiabetic IC50, DPP-IV inhibition; cited from earlier work
[14] = highest peptide concentration analyzed 1000 µM, read-out: ACE Inhibitory Activity (IC50-µM), symbol

Molecule | IC50 [1, 14] [µM] | Antioxidant Activity ORAC [5] [µmol TE/µmol peptide] | Antioxidant Activity TEAC [6] [µmol TE/µmol peptide] | IC50 [9] [µM] | IC50 [10] [µM] | further results
C[C@@H](O)[C@H](NC(=O)[C@H](Cc1c[nH]c2ccccc12)NC(=O)[C@@H]1CCCN1C(=O)[C@@H](N)Cc1ccc(O)cc1)C(=O)O [YPWT] (H-YPWT-OH) | > 1000 | – | – | – | – | Cell viability, direct effect [2]: did not evoke changes in cell viability; Cell viability, direct effect [3]: did not evoke changes in cell viability; Percentage of viable cells (% control) [4]: 79.58%
CC(C)C[C@H](NC(=O)[C@H](CC(C)C)NC(=O)[C@@H](N)Cc1ccc(O)cc1)C(=O)O [YLL] (H-Tyr-Leu-Leu-OH; N-terminus and C-terminus assumed) | – | 0.78 ± 0.03 | 2.55 ± 0.29 | – | – | IC50 ([1]; mean ± SD, read-out: ACE Inhibitory Activity (IC50-µM)): 518.5 ± 3.5 µM; FRAP [7]: FRAP = 81.76 mmol Fe/mol peptide **
C[C@@H](O)[C@H](NC(=O)[C@H](Cc1c[nH]c2ccccc12)NC(=O)[C@@H]1CCCN1)C(=O)O [PWT] (H-Pro-Trp-Thr-OH; N-terminus and C-terminus assumed) | > 1000 | 2.15 ± 0.07 | 0.73 ± 0.07 | – | – | Linoleic acid peroxidation (antioxidant) [8]: Inhibition of linoleic acid peroxidation *
CC(C)C[C@H](NC(=O)CNC(=O)[C@@H](N)Cc1ccc(O)cc1)C(=O)N[C@@H](Cc1ccccc1)C(=O)O [YGLF] (H-YGLF-OH; N-terminus and C-terminus assumed) | > 1000 | 0.89 ± 0.01 | 2.08 ± 0.06 | 733 | 300 | –
YLLF (UniProt P02754 118-121, looked up, fragment) [synthetic peptide, β-Lg f(102–105)] | – | 0.91 ± 0.04 | 1.96 ± 0.30 | 172 | 160 | Mucin secretion (opioid agonist) [11]: Stimulation of mucin secretion **; Stimulation of murine splenocytes (listed as cytotoxic) [12]: Stimulation of murine splenocytes **
YPFPGPIPN | – | 1.26 ± 0.06 | 1.22 ± 0.17 | – | – | IC50 [13]: 6.7 µM
